Experimental data reported in ChEMBL document CHEMBL1137302 (J Med Chem, 2006).

The compounds below were run against T1, D(4) dopamine receptor (Homo sapiens, UniProt P21917) (assay: Agonist activity at human D4.4 receptor in HEK293 cells coexpressing G-alpha-qo5 by FLIPR).
T1 sequence (P21917 whole entry): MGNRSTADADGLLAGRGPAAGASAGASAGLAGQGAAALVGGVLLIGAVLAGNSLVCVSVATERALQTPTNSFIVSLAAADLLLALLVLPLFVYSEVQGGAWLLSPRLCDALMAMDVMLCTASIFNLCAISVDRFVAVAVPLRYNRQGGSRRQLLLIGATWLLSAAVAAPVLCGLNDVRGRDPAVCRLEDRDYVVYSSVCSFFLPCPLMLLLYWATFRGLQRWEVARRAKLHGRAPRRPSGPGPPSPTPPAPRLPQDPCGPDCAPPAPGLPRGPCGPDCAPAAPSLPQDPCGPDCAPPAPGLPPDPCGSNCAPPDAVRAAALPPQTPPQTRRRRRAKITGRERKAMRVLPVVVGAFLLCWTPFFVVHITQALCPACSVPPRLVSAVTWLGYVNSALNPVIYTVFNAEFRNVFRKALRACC
Type: functional, cell-based

Structure (SMILES) | EC50
O=C(CN1CCC(c2cccc[n+]2[O-])CC1)Nc1cccc(C(F)(F)F)c1 | 76 nM
O=C(CN1CCC(c2cccc[n+]2[O-])CC1)Nc1cccc(F)c1 | 160 nM
O=C(NCN1CCC(c2cccc[n+]2[O-])CC1)c1cc(Cl)cc(Cl)c1 | 45 nM
O=C(NCN1CCC(c2cccc[n+]2[O-])CC1)c1ccc2ccccc2c1 | 115 nM
O=C(NCN1CCC(c2cccc[n+]2[O-])CC1)c1cnccc1Cl | 1290 nM
Cc1cc(NC(=O)CN2CCC(c3cccc[n+]3[O-])CC2)ccc1F | 18 nM
O=C(NCN1CCC(c2cccc[n+]2[O-])CC1)c1ccc(F)c(Cl)c1 | 63 nM
CCc1cccc(NC(=O)CN2CCC(c3cccc[n+]3[O-])CC2)c1 | 95 nM
O=C(CN1CCC(c2ccccn2)CC1)Nc1c(Cl)cc(Cl)cc1Cl | 145 nM
COc1cccc(C)c1NC(=O)CN1CCC(c2ccccn2)CC1 | 40 nM
Cc1cccc(C)c1NC(=O)CN1CCC(c2cccc[n+]2[O-])CC1 | 346 nM
COc1cccc(C)c1NC(=O)CN1CCC(c2cccc[n+]2[O-])CC1 | 340 nM
Cc1ccc(C(=O)NCN2CCC(c3cccc[n+]3[O-])CC2)cc1C | 38 nM
O=C(CN1CCC(c2cccc[n+]2[O-])CC1)Nc1cc(Cl)cc(Cl)c1 | 160 nM
Cc1cc(C(=O)NCN2CCC(c3cccc[n+]3[O-])CC2)ccc1F | 50 nM
c1ccc(C2CCN(Cc3nc4ccccc4[nH]3)CC2)nc1 | 12 nM
O=C(CN1CCC(c2cccc[n+]2[O-])CC1)Nc1cccc(-c2ccccc2)c1 | 360 nM
O=C(CN1CCC(c2cccc[n+]2[O-])CC1)Nc1ccc(F)cc1 | 85 nM
Cc1cccc(Cl)c1NC(=O)CN1CCC(c2ccccn2)CC1 | 60 nM
CCOc1cccc(C(=O)NCN2CCC(c3cccc[n+]3[O-])CC2)c1 | 324 nM
Cc1cccc(NC(=O)CN2CCC(c3nccs3)CC2)c1 | 1 nM
O=C(CN1CCC(c2cccc[n+]2[O-])CC1)Nc1cccc(OC(F)(F)F)c1 | 135 nM
CCc1cccc(C)c1NC(=O)CN1CCC(c2ccccn2)CC1 | 111 nM
O=C(NCN1CCC(c2cccc[n+]2[O-])CC1)c1ccc(OC(F)(F)F)c(Cl)c1 | 170 nM
Cc1ccc(Cl)c(NC(=O)CN2CCC(c3cccc[n+]3[O-])CC2)c1Cl | 346 nM

More lines, in order of falling EC50, values ahead:

EC50 | Structure (SMILES)
3150 nM | O=C(NCN1CCC(c2cccc[n+]2[O-])CC1)c1ccccn1
840 nM | N#Cc1cccc(C(=O)NCN2CCC(c3cccc[n+]3[O-])CC2)c1
685 nM | COc1cccc(C(=O)NCN2CCC(c3cccc[n+]3[O-])CC2)c1C
473 nM | O=C(CN1CCC(c2cccc[n+]2[O-])CC1)Nc1ccc(F)cc1C(F)(F)F
420 nM | COc1ccccc1C1CCN(CC(=O)Nc2cccc(C)c2)CC1
340 nM | Cc1cccc(NC(=O)CN2CCC(c3ccccc3C)CC2)c1
270 nM | O=C(CN1CCC(c2cccc[n+]2[O-])CC1)Nc1ccccc1F
240 nM | Cc1cc(Cl)cc(C)c1NC(=O)CN1CCC(c2ccccn2)CC1
180 nM | O=C(CN1CCC(c2cccc[n+]2[O-])CC1)Nc1cccc(Cl)c1Cl
170 nM | Cc1cccc(NC(=O)CN2CCC(c3ccccc3)CC2)c1
159 nM | COc1cc(C(=O)NCN2CCC(c3cccc[n+]3[O-])CC2)ccc1Cl
103 nM | O=C(CN1CCC(c2cccc[n+]2[O-])CC1)Nc1ccc(F)cc1F
100 nM | CSc1cccc(NC(=O)CN2CCC(c3cccc[n+]3[O-])CC2)c1
90 nM | Cc1cc(C)cc(C(=O)NCN2CCC(c3cccc[n+]3[O-])CC2)c1
85 nM | Cc1ccc(C(=O)NCN2CCC(c3cccc[n+]3[O-])CC2)cc1C(F)(F)F
68 nM | C=Cc1cccc(C(=O)NCN2CCC(c3cccc[n+]3[O-])CC2)c1
66 nM | Cc1cc(Br)ccc1NC(=O)CN1CCC(c2cccc[n+]2[O-])CC1
52 nM | Cc1cc(C)cc(NC(=O)CN2CCC(c3cccc[n+]3[O-])CC2)c1
36 nM | Cc1cccc(NC(=O)CN2CCC(c3ncccc3C#N)CC2)c1
8 nM | Cc1cccc(NC(=O)CN2CCC(c3ccccc3C#N)CC2)c1
